Entries after “also recorded” stand apart in the source; their conditions may differ.
Key:
[1] = Metabolism of the compound in human plasma in vitro; format: in vitro ADME
Method: In the present application, the conversion characteristics of Compound N9 and its isomers were evaluated by establishing an in vitro human plasma metabolism model. The test scheme was as follows: • (1) stock solutions (40 mM) of Compounds N9, N9(S) and N9(R) in pure acetonitrile were formulated respectively, and a stock solution (40 mM) of ibuprofen in pure acetonitrile was formulated; • (2) 25 μL stock solution of ibuprofen was mixed with 1 mL of human plasma and vortexed for 30 s. […]

[2] = Pharmacokinetics of PEG400 solution versus emulsion injection in rats (Test Example 5); format: in vivo; conditions: tail vein, equimolar dose
Method: The PEG solution (3250 μL) of the test compound was pipetted into a 10 mL EP tube, 1750 μL of normal saline was added into the tube with the dispensing gun, and the mixture was vortexed to be uniformly mixed to obtain a dosing solution with a concentration of 1.3 mg/mL and a volume of 5 mL.
Method for preparing the test solution of N9(S) (emulsion injection): an emulsion injection (215 μL) containing N9(S) compound (the content of which was 60 mg/mL) was added into a 15 mL EP tube and 10 mL of normal saline was added into the tube with a dispensing gun to obtain a dosing solution with a concentration of 1.3 mg/mL and […].

CCOC(=O)OC(CC)OC(=O)[C@@H](C)c1ccc(CC(C)C)cc1 (stereo partly drawn) [N9(S)]
Remaining amount of a prodrug compound (%) ([1]; 37° C., 120 min): 45.0 ± 2.1% | hydrolysis / metabolic rate in plasma (in words) ([1]; comparison between isomers): faster hydrolysis rate in plasma than N9(R); also recorded: faster metabolic rate than the racemate N9 | drug-time curve of dexibuprofen in vivo versus arginine solution of dexibuprofen (in words) ([2]; PEG400 solubilized solution): basically coincide | drug-time curve of dexibuprofen in vivo versus arginine solution of dexibuprofen (in words) ([2]; emulsion injection): basically coincide

From US12606517B2, “Ibuprofen ester derivative and emulsion preparation thereof” (NANJING HERON PHARMACEUTICAL SCIENCE AND TECHNOLOGY CO., …, priority 2021, dated 2026)
